# How the values were obtained:
# [1] = tested on: OCI-LY3 human lymphoma cells; assay: Cell growth inhibition (cell viability assay) on IMiD-resistant human lymphoma cells OCI-LY3; assay type: cell-based; conditions: for inhibition at 1 µM / inhibition at 10 µM: Homo sapiens, OCI-LY3 cells, 48 hr treatment; for inhibition at 10 µM / anti-lymphoma cell growth inhibition (in words): 10 uM; for anti-lymphoma cell growth inhibition (in words): OCI-LY3, listed in decreasing order of bioactivity
# Description: (§1) In certain embodiments of the present invention, the remarkable cancer cell growth inhibitory potential of caffeic acid phenpropyl ester analogues was established by treating human leukemia, myeloma and lymphoma cell lines with the analogues of Table 1 and measuring the viability of blood cancer cells by cell viability assay. The efficacy of the analogues of Table 1 in comparison to a standard chemotherapy drug was confirmed.
# With reference to Table 3 and FIG. 2, FIG. 2 is a bar graph depicting cell growth inhibitory effect of caffeic acid phenpropyl ester (GL8) analogues according to certain aspects of the present disclosure at 1 uM concentration on human lymphoma cells (Cell line: OCI-LY3; 48 hr treatment).
# With reference to Table 1, Table 4 and FIG. 3, FIG. 3 is a bar graph depicting cell growth inhibitory effect of caffeic acid phenpropyl ester (GL8) analogues according to certain aspects of the present disclosure at 10 uM concentration on human lymphoma cells (Cell line: OCI-LY3; 48 hr treatment).
# [2] = tested on: KMM-1 human myeloma cells; assay: Cell growth inhibition (cell viability assay) on IMiD-resistant human myeloma cells KMM-1; assay type: cell-based; conditions: for inhibition at 10 µM: Homo sapiens, KMM-1 cells, 48 hr treatment; for anti-myeloma cell growth inhibition (in words): 10 uM, KMM-1, listed in decreasing order of bioactivity
# Description: as §1
# With reference to Table 1, Table 2 and FIG. 1, FIG. 1 is a bar graph depicting cell growth inhibitory effect of caffeic acid phenpropyl ester (GL8) analogues at 10 uM concentration according to certain aspects of the present disclosure on human myeloma cells (Cell line: KMM-1; 48 hr treatment).
# [3] = tested on: HL-60 human leukemia cells; assay: Cell growth inhibition (cell viability assay) on human leukemia cells HL-60; assay type: cell-based; conditions: HL-60 cells, 48 hr treatment
# Description: as §1
# With reference to Table 5 and FIG. 4, FIG. 4 is a bar graph depicting cell growth inhibitory effect of caffeic acid phenpropyl ester (GL8) analogues at 10 uM concentration according to certain aspects of the present disclosure on human leukemia cells (Cell line: HL-60; 48 hr treatment).
# KMM1 cells = assay: Annexin V-PI flow cytometry apoptosis assay on KMM1 myeloma cells; assay type: cell-based, human; conditions: 10 uM, 72-hour treatment
# Protocol: Induction of apoptosis in myeloma cells by various inhibitors was determined by staining exposed phosphatidylserine with Annexin V-FITC and DNA with Propidium iodide using Alexa Fluor® 488 annexin V/Dead Cell Apoptosis Kit (Invitrogen, ThermoFisher Scientific, CA) according to the manufacturer's instructions. Single-cell suspensions were analyzed on a Beckmann Coulter Gallios Flow Cytometer with Kaluza analyses software. Twenty-five thousand events were acquired for every condition. Apoptotic cells were scored as Annexin V+, PI− and Annexin V+, PI+.
# Referring to FIG. 6, Apoptotic effect of veh/vehicle (DMSO), lenalidomide (len), pomalidomide (pom), CAPE, GL8, As26 and J229 (all compounds at 10 uM concentration) on KMM1 cells upon 72-hour treatment followed by Annexin V-PI flow cytometry analyses is shown. Percentage of early and late apoptotic cells are presented as mean±SD (*P≤0.05; **P≤0.01).
# [4] = tested on: myeloma cell lines (KMM1, MM1R, JJN3); assay: PrestoBlue cell viability assay, concentration response on myeloma cell lines; assay type: cell-based, human; conditions: in comparison to IMiDs, CAPE, GL8 and J229; 48 hours
# Protocol: Myeloma cell lines were treated for 3 or 5 days with increasing concentration of lenalidomide (FIG. 5A) and pomalidomide (FIG. 5B). KMM1 cells (FIG. 5D), MM1R cells (FIG. 5E), and JJN3 cells (FIG. 5F) were treated for 48 hours with varying concentration of CAPE, GL8, As26 and J229. The cell growth inhibition was determined by PrestoBlue cell viability assay. Data from three independent experiments is presented as mean±SD. IC50 values (FIG. 5C) representing half-maximal inhibitory concentration of compounds were determined using GraphPad prism analyses software.
Structure (SMILES),inhibition at 1 µM [1] [%],inhibition at 10 µM [1] [%],inhibition at 10 µM [2] [%],inhibition at 10 µM [3] [%],anti-lymphoma cell growth inhibition (in words) [1],anti-myeloma cell growth inhibition (in words) [2],apoptotic effect (in words) (KMM1 cells),myeloma cell growth inhibitory effect (in words) [4]
"O=C(/C=C/c1ccc(O)c(O)c1)OCc1ccccc1 [GL7, (E)-benzyl 3-(3,4-dihydroxyphenyl)acrylate]",10.5,18.9,15.9,20.5,–,–,–,–
"O=C(/C=C/c1ccc(O)c(O)c1)OCCCc1ccccc1 [GL8, caffeic acid phenpropyl ester, reference compound]",-4.6,78.7,28.2,36,–,–,–,–
"O=C(/C=C/c1ccc(O)c(O)c1)OCCc1ccccc1 [CAPE, Caffeic acid (3,4-dihydroxycinnamic acid) phenethyl ester, reference compound]",-24.3,51.8,14.7,-6.8,–,–,–,–
"Nc1cccc2c1CN(C1CCC(=O)NC1=O)C2=O (stereo not shown) [Lenalidomide, lenalidomide, reference compound]",–,7.5,7.5,1.6,–,–,–,–
"Cc1ccc(CCOC(=O)/C=C/c2ccc(O)c(O)c2)cc1 [MT25, (E)-(4-methylphenethyl) 3-(3,4-dihydroxyphenyl)acrylate]",10,59.8,21.6,28.7,–,–,–,–
"O=C(/C=C/c1ccc(O)c(O)c1)OC/C=C/c1ccccc1 [LL14, (2E)-cinnamyl 3-(3,4-dihydroxyphenyl)acrylate]",-1,61.5,16.1,21.6,–,–,–,–
"O=C(/C=C/c1ccc(O)c(O)c1)CCCc1ccccc1 [Molecule J205, (E)-1-(3,4-dihydroxyphenyl)-6-phenylhex-1-en-3-one]",18.7,76.6,22.2,60.7,–,–,–,–
"O=C(/C=C/c1ccc(O)c(O)c1)Oc1ccccc1 [GL9, (E)-phenyl 3-(3,4-dihydroxyphenyl)acrylate]",26.3,44.7,26,6.8,–,–,–,–
"O=C(/C=C/c1cccc(O)c1O)OCCCc1ccccc1 [As25, (E)-3-phenylpropyl 3-(2,3-dihydroxyphenyl)acrylate]",69,84,15.1,13.6,superior anti-lymphoma cell growth inhibition,–,–,–
"COc1cc(/C=C/C(=O)OCCc2ccccc2)ccc1O [MT49, (E)-phenethyl 3-(4-hydroxy-3-methoxyphenyl)acrylate]",-1,1.2,6.5,14.4,–,–,–,–
"O=C(/C=C/c1ccc(O)c(O)c1)OCCc1ccc(F)cc1 [MT26, (E)-(4-fluorophenethyl) 3-(3,4-dihydroxyphenyl)acrylate]",0.7,79.3,25.9,32.1,superior anti-lymphoma cell growth inhibition,–,–,–
"COc1cc(/C=C/C(=O)OCCCc2ccccc2)ccc1O [MT50, (E)-3-phenylpropyl 3-(4-hydroxy-3-methoxyphenyl)acrylate]",-0.7,1.5,13.6,13.4,–,–,–,–
"O=C(/C=C/c1ccc(O)c(O)c1)OCC#Cc1ccccc1 [Molecule J91, (E)-3-phenylprop-2-ynyl 3-(3,4-dihydroxyphenyl)acrylate]",0.3,39.8,31.7,32.4,–,superior anti-myeloma cell growth inhibition,–,–
"O=C(/C=C/c1ccc(O)cc1O)OCCCc1ccccc1 [MT72, (E)-3-phenylpropyl 3-(2,4-dihydroxyphenyl)acrylate]",3.3,-4.5,-0.2,-8.2,–,–,–,–
"O=C(/C=C/c1ccc(O)c(O)c1)NCCCc1ccccc1 [LL28, (E)-3-(3,4-dihydroxypheny1)-N-(3-phenylpropyl)acrylamide]",-9.5,36,15.8,8.7,–,–,–,–
"COc1cc(/C=C/C(=O)OCCc2ccccc2)cc(OC)c1O [HM5, (E)-phenethyl 3-(4-hydroxy-3,5-dimethoxyphenyl)acrylate]",3.1,-15.4,-8.6,-13.3,–,–,–,–
"O=C(/C=C/c1cc(O)ccc1O)OCCCc1ccccc1 [As26, (E)-3-phenylpropyl 3-(2,5-dihydroxyphenyl)acrylate]",26.6,90.3,89.7,54.4,superior anti-lymphoma cell growth inhibition,superior anti-myeloma cell growth inhibition,Remarkable apoptotic effect,superior myeloma cell growth inhibitory effect
"Oc1ccc(/C=C/COCCCc2ccccc2)cc1O [Molecule J229, 4-((E)-3-(3-phenylpropoxy)prop-1-enyl)benzene-1,2-diol]",2.3,78.2,49.4,54.3,superior anti-lymphoma cell growth inhibition,superior anti-myeloma cell growth inhibition,–,–
"COc1cc(/C=C/C(=O)OCCCc2ccccc2)cc(OC)c1O [HM7, (E)-3-phenylpropyl 3-(4-hydroxy-3,5-dimethoxyphenyl)acrylate]",-4.9,90,26.6,24.1,superior anti-lymphoma cell growth inhibition,superior anti-myeloma cell growth inhibition,–,–
"O=C(/C=C/c1ccc(O)c(O)c1)OCCCCc1ccccc1 [LL23, (E)-4-phenylbutyl 3-(3,4-dihydroxyphenyl)acrylate]",-9.3,71.7,27.2,33,–,superior anti-myeloma cell growth inhibition,–,–

# Source: patent US12605352B2, “Compositions and methods for inhibiting blood cancer cell growth” (UNIVERSITY OF NEW BRUNSWICK, priority 2019, dated 2026)
